According to the supplement of paper PMC11451515:

Experiments:
Details in all cases: 48 h
P12-Ichikawa [1] = experiment: cell viability relative to DMSO control; higher = less cytotoxic
How it was run: (§1)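 Library compounds in DMSO were pin-dosed in an 11-point threefold series (47 μM to 0.79 nM) onto leukemia cells in 1536-well plates (5 μl). Plates held 500 cells/well of NOMO1 or SEM or 1000 cells/well of P12-Ichikawa, each adapted for at least four passages in each medium. Luminescence was read with CellTiter-Glo One after 48 h at 37°C. Viability means the per-plate percentage relative to DMSO wells, using cell-free wells as background.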

NOMO1 [2] = experiment: as above
How it was run: as §1

SEM cells [3] = experiment: as above
How it was run: as §1

P12-Ichikawa [4] = experiment: AUC of viability dose-response curve (% viability x log10 dose units); higher = less sensitive
How it was run: (§2)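 Leukemia cells adapted to each medium were seeded in 1536-well plates (500 or 1000 cells/well). They were dosed with library compounds in DMSO at 11 threefold doses, 47 μM to 0.79 nM, for 48 h at 37°C. CellTiter-Glo One luminescence was normalised per plate to DMSO and cell-free wells. Area under the curve was integrated by trapezoidal rule over log10 doses on a four-parameter log-logistic fit; curves exceeding full viability were scaled and curves failing quality control removed.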

NOMO1 [5] = experiment: as above
How it was run: as §2

SEM cells [6] = experiment: as above
How it was run: as §2

C[C@]1(c2nc3c(C(N)=O)cccc3[nH]2)CCCN1
cell viability [%]
Details	NOMO1 [2]	P12-Ichikawa [1]	SEM cells [3]
HPLM + 10% dialyzed FBS, 0.000781 µM	70.8	78.7	63.8
HPLM + 10% dialyzed FBS, 0.00234 µM	69.6	83.9	74.1
HPLM + 10% dialyzed FBS, 0.00702 µM	84	79.3	75.9
HPLM + 10% dialyzed FBS, 0.0211 µM	82.2	88.8	89.1
HPLM + 10% dialyzed FBS, 0.0632 µM	80.8	82.2	78.3
HPLM + 10% dialyzed FBS, 0.19 µM	88.9	87.2	81.3
HPLM + 10% dialyzed FBS, 0.569 µM	84.2	88.4	74.5
HPLM + 10% dialyzed FBS, 1.71 µM	74.6	83.2	90.6
HPLM + 10% dialyzed FBS, 5.12 µM	67.1	81.3	87.2
HPLM + 10% dialyzed FBS, 15.4 µM	93	89.5	80.3
HPLM + 10% dialyzed FBS, 46.1 µM	31.4	72.4	63
RPMI 5 mM glucose + 10% FBS, 0.000781 µM	65.2	70.9	81
RPMI 5 mM glucose + 10% FBS, 0.00234 µM	80.4	78.2	62.7
RPMI 5 mM glucose + 10% FBS, 0.00702 µM	72.5	74.9	68
RPMI 5 mM glucose + 10% FBS, 0.0211 µM	79.5	82.6	88.8
RPMI 5 mM glucose + 10% FBS, 0.0632 µM	76.3	82.9	83
RPMI 5 mM glucose + 10% FBS, 0.19 µM	76.3	72.9	87.4
RPMI 5 mM glucose + 10% FBS, 0.569 µM	85.6	77.7	89.7
RPMI 5 mM glucose + 10% FBS, 1.71 µM	72	72.4	85
RPMI 5 mM glucose + 10% FBS, 5.12 µM	68.9	83.3	98
RPMI 5 mM glucose + 10% FBS, 15.4 µM	81.3	80.4	98.1
RPMI 5 mM glucose + 10% FBS, 46.1 µM	23	5.38	59.8
RPMI 5 mM glucose + 10% dialyzed FBS, 0.000781 µM	62.8	78.1	68.5
RPMI 5 mM glucose + 10% dialyzed FBS, 0.00234 µM	77	74.3	63.7
RPMI 5 mM glucose + 10% dialyzed FBS, 0.00702 µM	76.8	74.3	64.9
RPMI 5 mM glucose + 10% dialyzed FBS, 0.0211 µM	82.3	81.4	87.2
RPMI 5 mM glucose + 10% dialyzed FBS, 0.0632 µM	87.5	83.5	71.9
RPMI 5 mM glucose + 10% dialyzed FBS, 0.19 µM	93.7	76.9	79
RPMI 5 mM glucose + 10% dialyzed FBS, 0.569 µM	89.6	79	84.5
RPMI 5 mM glucose + 10% dialyzed FBS, 1.71 µM	90.6	81.6	75.6
RPMI 5 mM glucose + 10% dialyzed FBS, 5.12 µM	73.1	72.8	76.7
RPMI 5 mM glucose + 10% dialyzed FBS, 15.4 µM	77.4	82.1	76.7
RPMI 5 mM glucose + 10% dialyzed FBS, 46.1 µM	26.1	2.96	51.5

AUC of viability dose-response curve
Details	NOMO1 [5]	P12-Ichikawa [4]	SEM cells [6]
HPLM + 10% dialyzed FBS	368	399	372
RPMI 5 mM glucose + 10% FBS	349	353	393
RPMI 5 mM glucose + 10% dialyzed FBS	374	356	352

O=C(Nc1c(Cl)cncc1Cl)c1ccc(OC(F)F)c(OCC2CC2)c1
cell viability [%]
Details	NOMO1 [2]	P12-Ichikawa [1]	SEM cells [3]
HPLM + 10% dialyzed FBS, 0.000781 µM	108	101	93.8
HPLM + 10% dialyzed FBS, 0.00234 µM	126	112	90.5
HPLM + 10% dialyzed FBS, 0.00702 µM	111	118	94.2
HPLM + 10% dialyzed FBS, 0.0211 µM	97.5	105	96.8
HPLM + 10% dialyzed FBS, 0.0632 µM	123	114	105
HPLM + 10% dialyzed FBS, 0.19 µM	105	113	102
HPLM + 10% dialyzed FBS, 0.569 µM	130	111	109
HPLM + 10% dialyzed FBS, 1.71 µM	124	115	110
HPLM + 10% dialyzed FBS, 5.12 µM	109	117	100
HPLM + 10% dialyzed FBS, 15.4 µM	98.5	108	90.6
HPLM + 10% dialyzed FBS, 46.1 µM	100	104	107
RPMI 5 mM glucose + 10% FBS, 0.000781 µM	94.4	103	86.3
RPMI 5 mM glucose + 10% FBS, 0.00234 µM	102	116	93.9
RPMI 5 mM glucose + 10% FBS, 0.00702 µM	101	111	107
RPMI 5 mM glucose + 10% FBS, 0.0211 µM	99.1	115	82
RPMI 5 mM glucose + 10% FBS, 0.0632 µM	108	122	90.4
RPMI 5 mM glucose + 10% FBS, 0.19 µM	106	121	97.4
RPMI 5 mM glucose + 10% FBS, 0.569 µM	120	119	95.4
RPMI 5 mM glucose + 10% FBS, 1.71 µM	107	106	93.6
RPMI 5 mM glucose + 10% FBS, 5.12 µM	102	110	93.5
RPMI 5 mM glucose + 10% FBS, 15.4 µM	103	106	101
RPMI 5 mM glucose + 10% FBS, 46.1 µM	99.7	106	103
RPMI 5 mM glucose + 10% dialyzed FBS, 0.000781 µM	94.5	96.8	92.4
RPMI 5 mM glucose + 10% dialyzed FBS, 0.00234 µM	106	107	90.5
RPMI 5 mM glucose + 10% dialyzed FBS, 0.00702 µM	112	100	102
RPMI 5 mM glucose + 10% dialyzed FBS, 0.0211 µM	101	108	87.6
RPMI 5 mM glucose + 10% dialyzed FBS, 0.0632 µM	107	106	96.6
RPMI 5 mM glucose + 10% dialyzed FBS, 0.19 µM	112	108	94.3
RPMI 5 mM glucose + 10% dialyzed FBS, 0.569 µM	106	114	102
RPMI 5 mM glucose + 10% dialyzed FBS, 1.71 µM	114	111	111
RPMI 5 mM glucose + 10% dialyzed FBS, 5.12 µM	97.8	113	101
RPMI 5 mM glucose + 10% dialyzed FBS, 15.4 µM	99.6	109	85.8
RPMI 5 mM glucose + 10% dialyzed FBS, 46.1 µM	102	105	85.7

AUC of viability dose-response curve
Details	NOMO1 [5]	P12-Ichikawa [4]	SEM cells [6]
HPLM + 10% dialyzed FBS	459	475	453
RPMI 5 mM glucose + 10% FBS	465	467	452
RPMI 5 mM glucose + 10% dialyzed FBS	476	466	455
